Assay results as given in article PMC4560900, “High-throughput screening against thioredoxin glutathione reductase identifies novel inhibitors with potential therapeutic value for schistosomiasis” (Infectious Diseases of Poverty, 2015).

Key:
[1] = molecular target: T1, Thioredoxin glutathione reductase from S. mansoni (SmTGR) (Schistosoma mansoni, UniProt Q962Y6); assay: Endpoint SmTGR fluorescence (ThioGlo) assay; type: biochemical
T1 construct: made in house
T1 sequence (Q962Y6 1-598): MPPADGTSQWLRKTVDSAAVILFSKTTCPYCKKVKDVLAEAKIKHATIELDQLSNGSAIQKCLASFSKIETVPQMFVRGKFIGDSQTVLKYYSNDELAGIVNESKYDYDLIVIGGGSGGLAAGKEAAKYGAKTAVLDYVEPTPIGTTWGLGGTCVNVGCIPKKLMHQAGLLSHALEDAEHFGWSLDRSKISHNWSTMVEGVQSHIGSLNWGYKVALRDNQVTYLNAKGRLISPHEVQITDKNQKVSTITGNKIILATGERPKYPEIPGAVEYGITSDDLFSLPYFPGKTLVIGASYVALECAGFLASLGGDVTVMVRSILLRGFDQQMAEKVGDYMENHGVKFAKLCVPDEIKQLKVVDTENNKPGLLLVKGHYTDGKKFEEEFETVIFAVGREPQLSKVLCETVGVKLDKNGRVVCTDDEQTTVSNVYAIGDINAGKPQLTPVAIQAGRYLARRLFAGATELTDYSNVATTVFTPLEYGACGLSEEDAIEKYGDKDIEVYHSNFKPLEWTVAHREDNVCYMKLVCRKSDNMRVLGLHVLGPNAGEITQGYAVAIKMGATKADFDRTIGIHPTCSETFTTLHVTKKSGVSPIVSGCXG
Method: SmTGR protein (1.58 μg/ml) was loaded into each well of black 384-well plates (PerkinElmer, Boston, MA, USA) containing 19 μl of assay buffer I (90 mM Tris-HCl, 10 mM EDTA, pH 7.5, 100 μM NADPH, and 0.48 mg/ml BSA), followed by an addition of 1 μl positive control or test compounds. The plates were sealed and incubated for 50 min at room temperature. […] Following a 1 h incubation, the product was reacted with 30 μl ThioGlo® 1 reagent for 20–30 min, and the fluorescence signal was monitored at an excitation wavelength of 380 nm and an emission wavelength of 515 nm on the EnVision plate reader (PerkinElmer).
An HTS effort was carried out against the compound library described above. […]
Data were analyzed using GraphPad Prism® software (GraphPad, San Diego, CA, USA). […]
Recombinant SmTGR was expressed and purified as previously described. An earlier assay of the coupled activities of SmTGR and peroxiredoxin-2 [13] was adapted to study the activity of SmTGR alone, using the following principle: SmTGR converts NADPH and GSSG to NADP^+ and reduced glutathione (GSH), and GSH production can be detected with ThioGlo®, a maleimide derivative of the naphthopyranone fluorophore which fluoresces upon reacting with free thiol groups such as those present in GSH. […] After ten additional minutes, samples were excited at […] and read for fluorescence at 515 nM.

SmTGR = test system: SmTGR; parameters: method as in PMID 17579510; conditions: read-out: IC50 documented in the literature; cited from earlier work
worms = test system: worms; parameters: method as in PMID 7016122; conditions: previous studies; cited from earlier work

Row | SMILES | IC50 [1] | inhibition at 30 µM ([1]; read-out: Inhibition of SmTGR) | IC50 (SmTGR) | Worm-killing activity concentration (worms)
1 | O=C1C=CC(=O)c2c(O)ccc(O)c21 [naphthazarin, Naphthazarin] | 1.42 ± 0.08 µM | 100% | 10 µM | 
2 | O=C(C1CCCCC1)N1CC(=O)N2CCc3ccccc3C2C1 (stereo not shown) [PZQ, praziquantel] |  |  |  | 0.3 to 1 µM
